# From patent US4593104A, “2-halo-N-(azole-1-yl-methyl)-substituted acetanilides” (BASF Aktiengesellschaft, priority 1976, dated 1986)
# Where “and” joins values, the source holds several entries; their conditions need not be identical. Equal values may be shown once.
# What was measured:
# [1] = test system: Glyc. max; assay: preemergence application in the open, % damage; format: in vivo, Glycine max
# Experimental: (§1) The experiments were carried out on small plots. The soil was a sandy loam having a pH of from 5 to 6 and containing from 1 to 1.5% humus. The treatment was preemergence, the active ingredients being applied immediately or at the latest 3 days after sowing. The crop plants were sown in rows. The weed flora was made up of the most widely varying species and was natural; the weed flora depended on the time of the year and in part on the crop (e.g., spring-germinating, summer-germinating). The substances were emulsified or suspended in water as the vehicle, and applied by means of a motor-driven plot spray mounted on a hitch. When no rain fell, the plots were watered to ensure germination and growth of the crop plants and weeds. All the experiments were run for several weeks. Over this period, assessments were made at certain intervals on the 0 to 100 scale.
# [2] = test system: Matric. spp.; assay: postemergence application in the greenhouse, % damage; format: in vivo
# Excerpt: (§2) The vessels employed were plastic flowerpots having a volume of 300 cm^3; the substrate was a sandy loam containing about 1.5% humus. The seeds of the test plants (see Table 1) were sown shallow, and separated according to species. In the case of Cyperus esculentus, pregerminated tubers were planted. In the preemergence treatment, the active ingredients were then immediately applied to the surface of the soil. They were suspended or emulsified in water as the vehicle, and sprayed through atomizing nozzles. After the agents had been applied, the vessels were lightly sprinkler-irrigated to set germination and growth going, and to activate the chemical agents. The vessels were then covered with transparent plastic hoods until the plants had taken root. This cover ensured uniform germination of the test plants (to the extent that this was not impaired by the chemicals), and prevented readily volatile substances from evaporating.
# (§3) For postemergence treatment, the plants were first grown to a height of from 3 to 10 cm, depending on their habit, before treated. Hoods were not placed on the pots. The experiments were set up in the greenhouse, hotter areas (25° to 40° C.) being preferred for heat-loving species, and 15° to 30° C. for plants from moderate climates. The experiments were carried out for from 4 to 6 weeks. During this period the plants were tended and their reaction to the various treatments was assessed. The following tables contain the substances investigated, the application rates in kg/ha of active ingredient, and the test plant species. Assessments were made on a 0 to 100 scale, 0 denoting no damage or normal emergence, and 100 denoting no emergence or complete destruction of at least the visible plant parts.
# [3] = test system: Stell. med.; assay: as above; format: in vivo
# Excerpt: as §2, §3
# [4] = test system: Avena fat.; assay: as above; format: in vivo
# Excerpt: as §2, §3
# [5] = test system: Chrys. seget.; assay: as above; format: in vivo
# Excerpt: as §2, §3
# [6] = test system: Setaria spp.; assay: as above; format: in vivo
# Excerpt: as §2, §3
# [7] = test system: Alopec. myosur.; assay: as above; format: in vivo
# Excerpt: as §2, §3
# [8] = test system: Cyper. escul.; assay: preemergence treatment in the greenhouse, % damage; format: in vivo, Cyperus esculentus
# Excerpt: as §2, §3
# [9] = test system: Glyc. max; assay: preemergence treatment in the greenhouse, % damage; format: in vivo, Glycine max; conditions: 0.25 kg/ha
# Method in brief: (§4)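 Greenhouse herbicide test at rates in kg/ha a.i. Pre-em soil spray right after sowing, then irrigation and hooding; post-em on 3–10 cm plants. Rated 0–100 over 4–6 weeks.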
# [10] = test system: Amar. retro.; assay: preemergence application in the open, % damage; format: in vivo; conditions: 1,0 kg/ha
# Experimental: as §1
# [11] = test system: Brassica napus; assay: preemergence application in the open, % damage; format: in vivo; conditions: 2.0 kg/ha
# Experimental: as §1
# [12] = test system: Stellaria media; assay: preemergence application in the open, % damage; format: in vivo; conditions: 2.0 kg/ha
# Experimental: as §1
# [13] = test system: Echin. c.g.; assay: preemergence application in the open, % damage; format: in vivo
# Experimental: as §1
# [14] = test system: Anth./Matric.; assay: preemergence application in the open, % damage; format: in vivo; conditions: 2.0 kg/ha
# Experimental: as §1
# [15] = test system: Chenop. spp.; assay: preemergence application in the open, % damage; format: in vivo
# Experimental: as §1
# [16] = test system: Galins. spp.; assay: preemergence application in the open, % damage; format: in vivo
# Experimental: as §1
# [17] = test system: Alopec. myosur.; assay: preemergence application in the open, % damage; format: in vivo; conditions: 2.0 kg/ha
# Experimental: as §1
# [18] = test system: Sorgh. bicol.; assay: preemergence treatment in the greenhouse, % damage; format: in vivo, Sorghum bicolor
# Excerpt: as §2, §3
# [19] = test system: Cyper. escul.; assay: postemergence application in the greenhouse, % damage; format: in vivo, Cyperus esculentus
# Excerpt: as §2, §3
# [20] = test system: Amar. retro.; assay: preemergence treatment in the greenhouse, % damage; format: in vivo
# Method in brief: as §4
# [21] = test system: Bromus spp.; assay: preemergence treatment in the greenhouse, % damage; format: in vivo
# Method in brief: as §4
# [22] = test system: Echin. c.g.; assay: preemergence treatment in the greenhouse, % damage; format: in vivo
# Method in brief: as §4
# [23] = test system: Poa annua; assay: preemergence treatment in the greenhouse, % damage; format: in vivo
# Method in brief: as §4
# [24] = test system: Matric. spp.; assay: preemergence treatment in the greenhouse, % damage; format: in vivo
# Method in brief: as §4
# [25] = test system: Stell. med.; assay: preemergence treatment in the greenhouse, % damage; format: in vivo
# Method in brief: as §4
# [26] = test system: Euph. gen.; assay: preemergence treatment in the greenhouse, % damage; format: in vivo
# Method in brief: as §4
# [27] = test system: Sorgh. halep.; assay: preemergence treatment in the greenhouse, % damage; format: in vivo
# Method in brief: as §4
# [28] = test system: Zea mays; assay: preemergence treatment in the greenhouse, % damage; format: in vivo
# Method in brief: as §4
# [29] = test system: Chrys. seget.; assay: preemergence treatment in the greenhouse, % damage; format: in vivo
# Method in brief: as §4
# [30] = test system: Setaria spp.; assay: preemergence treatment in the greenhouse, % damage; format: in vivo
# Method in brief: as §4
# [31] = test system: Alopec. myosur.; assay: preemergence treatment in the greenhouse, % damage; format: in vivo
# Method in brief: as §4
# [32] = test system: Cyp. diff.; assay: preemergence treatment in the greenhouse, % damage; format: in vivo
# Method in brief: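 Preemergence: active sprayed onto the soil surface immediately after sowing; pots sprinkler-irrigated and covered with transparent hoods until plants rooted. Postemergence: unhooded plants sprayed at 3–10 cm. Both run 4–6 weeks in greenhouse; damage 0 = none, 100 = no emergence or total kill of visible parts.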
# [33] = test system: Solanum nigrum; assay: preemergence treatment in the greenhouse, % damage; format: in vivo
# Method in brief: as §4
# [34] = test system: Gossyp. hirs.; assay: preemergence treatment in the greenhouse, % damage; format: in vivo, Gosspyium hirsutum
# Method in brief: as §4
# [35] = one value printed for two rates (0.25 0.5 kg/ha)
structure (smiles),measurement,setting,value
"CCc1cccc(CC)c1N(COC)C(=O)CCl [prior art, 2-chloro-2',6'-diethyl-N-methoxymethyl-acetanilide, reference compound]",% damage,"[1]; 0,1 kg/ha",0%
same,% damage,"[1]; 1,0 kg/ha",0%
same,% damage,[2]; 1.0 kg/ha,50%
same,% damage,[2]; 2.0 kg/ha,50%
same,% damage,[3]; 1.0 kg/ha,0%
same,% damage,[3]; 2.0 kg/ha,30%
same,% damage,[4]; 1.0 kg/ha,50%
same,% damage,[4]; 2.0 kg/ha,70%
same,% damage,[5]; 1.0 kg/ha,15%
same,% damage,[5]; 2.0 kg/ha,15%
same,% damage,[6]; 1.0 kg/ha,68%
same,% damage,[6]; 2.0 kg/ha,68%
same,% damage,[7]; 1.0 kg/ha,60%
same,% damage,[7]; 2.0 kg/ha,60%
same,% damage,[8]; 0.5 kg/ha,40%
same,% damage,[8]; 1.0 kg/ha,50%
same,% damage,[8]; 2.0 kg/ha,60%
same,% damage,[9],10%
same,% damage,[10],80%
same,% damage,[11],5%
same,% damage,[12],15%
same,% damage,"[13]; 0,1 kg/ha",65%
same,% damage,"[13]; 1,0 kg/ha",73%
same,% damage,[14],53%
same,% damage,"[15]; 0,1 kg/ha",10%
same,% damage,"[15]; 1,0 kg/ha",13%
same,% damage,"[16]; 0,1 kg/ha",30%
same,% damage,"[16]; 1,0 kg/ha",55%
same,% damage,[17],65%
same,% damage,[18]; 1.0 kg/ha,0%
same,% damage,[18]; 2.0 kg/ha,0%
same,% damage,[19]; 1.0 kg/ha,42%
same,% damage,[19]; 2.0 kg/ha,55%
same,% damage,[20]; 0.25 kg/ha,72% and 80%
same,% damage,[20]; 0.5 kg/ha,100% and 80%
same,% damage,[20]; 2.0 kg/ha,100% and 50%
same,% damage,[20]; [35],75%
same,% damage,[21]; 0.125 kg/ha,50%
same,% damage,[21]; 0.25 kg/ha,80% and 88%
same,% damage,[21]; 0.5 kg/ha,90%
same,% damage,[21]; 1.0 kg/ha,50%
same,% damage,[21]; 2.0 kg/ha,70%
same,% damage,[22]; 0.25 kg/ha,95%
same,% damage,[22]; 0.5 kg/ha,65% and 100%
same,% damage,[22]; 2.0 kg/ha,95% and 90%
same,% damage,[23]; 0.125 kg/ha,80%
same,% damage,[23]; 0.5 kg/ha,15%
same,% damage,[24]; 0.25 kg/ha,50%
same,% damage,[24]; 0.5 kg/ha,80%
same,% damage,[24]; 1.0 kg/ha,90%
same,% damage,[25]; 0.25 kg/ha,20%
same,% damage,[25]; 0.5 kg/ha,70%
same,% damage,[25]; 1.0 kg/ha,70%
same,% damage,[26]; 0.5 kg/ha,25% and 20% and 30%
same,% damage,[26]; 1.0 kg/ha,45% and 50%
same,% damage,[26]; 2.0 kg/ha,100%
same,% damage,[27]; 0.125 kg/ha,40%
same,% damage,[27]; 0.25 kg/ha,38% and 50% and 30%
same,% damage,[27]; 0.5 kg/ha,50% and 40%
same,% damage,[27]; 1.0 kg/ha,70%
same,% damage,[28]; 1.0 kg/ha,0%
same,% damage,[28]; 2.0 kg/ha,0%
same,% damage,[29]; 0.25 kg/ha,30%
same,% damage,[29]; 0.5 kg/ha,0%
same,% damage,[30]; 0.25 kg/ha,70%
same,% damage,[30]; 0.5 kg/ha,60% and 90%
same,% damage,[30]; 1.0 kg/ha,90% and 95% and 100%
same,% damage,[30]; 2.0 kg/ha,100%
same,% damage,[31]; 0.25 kg/ha,40%
same,% damage,[31]; 0.5 kg/ha,80%
same,% damage,[31]; 1.0 kg/ha,80%
same,% damage,[32]; 0.125 kg/ha,65%
same,% damage,[32]; 0.25 kg/ha,70% and 100%
same,% damage,[32]; 0.5 kg/ha,100%
same,% damage,[32]; 1.0 kg/ha,100%
same,% damage,[32]; [35],65%
same,% damage,[33]; 0.25 kg/ha,50%
same,% damage,[33]; 0.5 kg/ha,80% and 95%
same,% damage,[33]; 1.0 kg/ha,100%
same,% damage,[33]; 2.0 kg/ha,100%
same,% damage,[34]; 0.25 kg/ha,0%
same,% damage,[34]; 0.5 kg/ha,0%
same,% damage,[34]; 1.0 kg/ha,20% and 10%
same,% damage,[34]; 2.0 kg/ha,40%
